From ChEMBL document CHEMBL1201861, “Genomics of Drug Sensitity in Cancer screening data, Wellcome Trust Sanger Institute”
pIC50: −log10 of the molar value.

What was measured:
Assay in all cases: cells
Calu-6 = type: functional, cell-based, Homo sapiens; settings: Homo sapiens, Calu-6;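 note: growth of human Calu-6 cells, read out by a cell viability assay, IC50 marking inhibition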
Description: SANGER: Inhibition of human Calu-6 cell growth in a cell viability assay.

DoTc2-4510 = type: functional, cell-based, Homo sapiens; settings: Homo sapiens, DoTc2-4510
ES1 = type: functional, cell-based, Homo sapiens; settings: Homo sapiens, ES1;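 note: growth inhibition of ES1 cells, read out with a cell viability assay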
Description: SANGER: Inhibition of human ES1 cell growth in a cell viability assay.

ES8 = type: functional, cell-based, Homo sapiens; settings: Homo sapiens, ES8;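 note: growth inhibition of human ES8 cells, read out with a cell viability assay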
Description: SANGER: Inhibition of human ES8 cell growth in a cell viability assay.

G-401 = type: functional, cell-based, Homo sapiens; settings: Homo sapiens, G-401
Description: SANGER: Inhibition of human G-401 cell growth in a cell viability assay.

GCIY = type: functional, cell-based, Homo sapiens; settings: Homo sapiens, GCIY;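 note: growth inhibition of the human GCIY cell line, read out by a cell viability assay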
Description: SANGER: Inhibition of human GCIY cell growth in a cell viability assay.

HCC1187 = type: functional, cell-based, Homo sapiens; settings: Homo sapiens, HCC1187;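 note: growth inhibition of HCC1187 cells, read out with a cell viability assay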
Description: SANGER: Inhibition of human HCC1187 cell growth in a cell viability assay.

HCE-4 = type: functional, cell-based, Homo sapiens; settings: Homo sapiens, HCE-4;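 note: cell viability assay measuring inhibition of growth in the human HCE-4 cell line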
Description: SANGER: Inhibition of human HCE-4 cell growth in a cell viability assay.

HGC-27 = type: functional, cell-based, Homo sapiens; settings: Homo sapiens, HGC-27;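 note: growth inhibition of human HGC-27 cells, read out in a cell viability assay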
Description: SANGER: Inhibition of human HGC-27 cell growth in a cell viability assay.

HOS = type: functional, cell-based, Homo sapiens; settings: Homo sapiens, HOS;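 note: growth inhibition of human HOS cells, read out with a cell viability assay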
Description: SANGER: Inhibition of human HOS cell growth in a cell viability assay.

HSC-2 = type: functional, cell-based, Homo sapiens; settings: Homo sapiens, HSC-2;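 note: growth inhibition of human HSC-2 cells, read out by a cell viability assay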
Description: SANGER: Inhibition of human HSC-2 cell growth in a cell viability assay.

IGROV-1 = type: functional, cell-based, Homo sapiens; settings: Homo sapiens, IGROV-1;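 note: reduction of IGROV-1 cell growth, read out with a viability assay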
Description: SANGER: Inhibition of human IGROV-1 cell growth in a cell viability assay.

J-RT3-T3-5 = type: functional, cell-based; settings: Homo sapiens;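 note: cell viability assay measuring growth inhibition of human J-RT3-T3-5 cells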
Description: SANGER: Inhibition of human J-RT3-T3-5 cell growth in a cell viability assay.

KY821 = type: functional, cell-based; settings: Homo sapiens;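 note: growth inhibition of human KY821 cells, read out by a cell viability assay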
Description: SANGER: Inhibition of human KY821 cell growth in a cell viability assay.

LU-134-A = type: functional, cell-based; settings: Homo sapiens
Description: SANGER: Inhibition of human LU-134-A cell growth in a cell viability assay.

LU-99A = type: functional, cell-based, Homo sapiens; settings: Homo sapiens, LU-99A;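 note: growth inhibition of LU-99A cells, read out with a cell viability assay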
Description: SANGER: Inhibition of human LU-99A cell growth in a cell viability assay.

MG-63 = type: functional, cell-based, Homo sapiens; settings: Homo sapiens, MG-63;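 note: growth inhibition of human MG-63 cells, read out with a cell viability assay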
Description: SANGER: Inhibition of human MG-63 cell growth in a cell viability assay.

MKN-7 = type: functional, cell-based, Homo sapiens; settings: Homo sapiens, MKN-7;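 note: growth inhibition of MKN-7 cells, read out with a cell viability assay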
Description: SANGER: Inhibition of human MKN7 cell growth in a cell viability assay.

ML-2 = type: functional, cell-based; settings: Homo sapiens;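 note: growth inhibition of ML-2 cells, measured with a cell viability readout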
Description: SANGER: Inhibition of human ML-2 cell growth in a cell viability assay.

NB14 = type: functional, cell-based; settings: Homo sapiens;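 note: growth inhibition of NB14 cells measured with a cell viability assay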
Description: SANGER: Inhibition of human NB14 cell growth in a cell viability assay.

NCI-H1648 = type: functional, cell-based, Homo sapiens; settings: Homo sapiens, NCI-H1648;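 note: cell viability assay measuring inhibition of NCI-H1648 cell growth, from the Sanger screening data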
Description: SANGER: Inhibition of human NCI-H1648 cell growth in a cell viability assay.

NCI-H1770 = type: functional, cell-based; settings: Homo sapiens;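 note: growth inhibition of NCI-H1770 cells determined with a viability readout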
Description: SANGER: Inhibition of human NCI-H1770 cell growth in a cell viability assay.

NCI-H2052 = type: functional, cell-based, Homo sapiens; settings: Homo sapiens, NCI-H2052;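 note: growth inhibition of NCI-H2052 cells, read out with a cell viability assay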
Description: SANGER: Inhibition of human NCI-H2052 cell growth in a cell viability assay.

NCI-H2170 = type: functional, cell-based, Homo sapiens; settings: Homo sapiens, NCI-H2170;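 note: cell viability assay measuring growth inhibition of human NCI-H2170 cancer cells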
Description: SANGER: Inhibition of human NCI-H2170 cell growth in a cell viability assay.

NCI-H2405 = type: functional, cell-based, Homo sapiens; settings: Homo sapiens, NCI-H2405;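 note: growth inhibition of the human cell line, read out with a cell viability assay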
Description: SANGER: Inhibition of human NCI-H2405 cell growth in a cell viability assay.

NCI-H2452 = type: functional, cell-based, Homo sapiens; settings: Homo sapiens, NCI-H2452;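 note: growth inhibition of NCI-H2452 cells, read out with a cell viability assay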
Description: SANGER: Inhibition of human NCI-H2452 cell growth in a cell viability assay.

NCI-H441 = type: functional, cell-based; settings: Homo sapiens;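 note: growth inhibition of NCI-H441 cells, read out with a cell viability assay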
Description: SANGER: Inhibition of human NCI-H441 cell growth in a cell viability assay.

NCI-H596 = type: functional, cell-based, Homo sapiens; settings: Homo sapiens, NCI-H596;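 note: growth inhibition of NCI-H596 cells, read out with a cell viability assay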
Description: SANGER: Inhibition of human NCI-H596 cell growth in a cell viability assay.

NCI-H810 = type: functional, cell-based, Homo sapiens; settings: Homo sapiens, NCI-H810;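 note: IC50 reflects inhibition of cancer cell line growth, read out with a cell viability assay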
Description: SANGER: Inhibition of human NCI-H810 cell growth in a cell viability assay.

NKM-1 = type: functional, cell-based; settings: Homo sapiens;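 note: growth inhibition of NKM-1 cells, read out with a cell viability assay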
Description: SANGER: Inhibition of human NKM-1 cell growth in a cell viability assay.

OAW-42 = type: functional, cell-based, Homo sapiens; settings: Homo sapiens, OAW-42;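 note: growth inhibition of OAW-42 cells, read out with a cell viability assay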
Description: SANGER: Inhibition of human OAW-42 cell growth in a cell viability assay.

OCUB-M = type: functional, cell-based, Homo sapiens; settings: Homo sapiens, OCUB-M;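 note: growth inhibition of the cancer cell line, read out through a cell viability assay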
Description: SANGER: Inhibition of human OCUB-M cell growth in a cell viability assay.

PFSK-1 = type: functional, cell-based, Homo sapiens; settings: Homo sapiens, PFSK-1;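 note: cell viability assay measuring how strongly compounds suppress growth of human PFSK-1 cells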
Description: SANGER: Inhibition of human PFSK-1 cell growth in a cell viability assay.

RS4-11 = type: functional, cell-based; settings: Homo sapiens;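 note: growth inhibition of RS4-11 cells, read out by a cell viability assay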
Description: SANGER: Inhibition of human RS4-11 cell growth in a cell viability assay.

RT-112 = type: functional, cell-based, Homo sapiens; settings: Homo sapiens, RT-112
Description: SANGER: Inhibition of human RT-112 cell growth in a cell viability assay.

SW948 = type: functional, cell-based, Homo sapiens; settings: Homo sapiens, SW948;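 note: growth inhibition of SW948 cells, read out with a cell viability assay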
Description: SANGER: Inhibition of human SW948 cell growth in a cell viability assay.

T98G = type: functional, cell-based, Homo sapiens; settings: Homo sapiens, T98G;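 note: growth inhibition of T98G cells, read out by a cell viability assay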
Description: SANGER: Inhibition of human T98G cell growth in a cell viability assay.

647-V = type: functional, cell-based, Homo sapiens; settings: Homo sapiens, 647-V;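 note: growth inhibition of 647-V cells, read out with a cell viability assay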
Description: SANGER: Inhibition of human 647-V cell growth in a cell viability assay.

769-P = type: functional, cell-based, Homo sapiens; settings: Homo sapiens, 769-P
Description: SANGER: Inhibition of human 769-P cell growth in a cell viability assay.

A2058 = type: functional, cell-based; settings: Homo sapiens;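 note: reduction of A2058 cell growth, read out with a viability assay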
Description: SANGER: Inhibition of human A2058 cell growth in a cell viability assay.

A253 cell line = type: functional, cell-based, Homo sapiens; settings: Homo sapiens, A253;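 note: growth inhibition of A253 cells, read out with a cell viability assay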
Description: SANGER: Inhibition of human A253 cell growth in a cell viability assay.

A498 = type: functional, cell-based, Homo sapiens; settings: Homo sapiens, A498;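 note: growth inhibition of human A498 cells, read out with a cell viability assay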
Description: SANGER: Inhibition of human A498 cell growth in a cell viability assay.

A673 = type: functional, cell-based, Homo sapiens; settings: Homo sapiens, A673;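 note: growth inhibition of human A673 cells, read out through a cell viability assay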
Description: SANGER: Inhibition of human A673 cell growth in a cell viability assay.

A704 = type: functional, cell-based, Homo sapiens; settings: Homo sapiens, A704;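 note: growth inhibition of human A704 cells, read out with a cell viability assay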
Description: SANGER: Inhibition of human A704 cell growth in a cell viability assay.

AU565 = type: functional, cell-based, Homo sapiens; settings: Homo sapiens, AU565;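 note: cell viability assay measuring growth inhibition of human AU565 cells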
Description: SANGER: Inhibition of human AU565 cell growth in a cell viability assay.

ASPC1 = type: functional, cell-based, Homo sapiens; settings: Homo sapiens, ASPC1;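 note: growth inhibition of AsPC-1 cells, read out with a cell viability assay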
Description: SANGER: Inhibition of human AsPC-1 cell growth in a cell viability assay.

CAL-12T = type: functional, cell-based, Homo sapiens; settings: Homo sapiens, CAL-12T;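 note: growth inhibition of human CAL-12T cells, read out with a cell viability assay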
Description: SANGER: Inhibition of human CAL-12T cell growth in a cell viability assay.

YAPC = type: functional, cell-based, Homo sapiens; settings: Homo sapiens, YAPC;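 note: growth inhibition of YAPC cells, measured with a cell viability assay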
Description: SANGER: Inhibition of human YAPC cell growth in a cell viability assay.

YKG-1 = type: functional, cell-based, Homo sapiens; settings: Homo sapiens, YKG-1;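 note: cell growth inhibition, read out with a viability assay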
Description: SANGER: Inhibition of human YKG-1 cell growth in a cell viability assay.

COLO-680N = type: functional, cell-based, Homo sapiens; settings: Homo sapiens, COLO-680N;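 note: cell viability assay used to measure inhibition of COLO-680N cell growth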
Description: SANGER: Inhibition of human COLO-680N cell growth in a cell viability assay.

LB373-MEL-D = type: functional, cell-based, Homo sapiens; settings: Homo sapiens, LB373-MEL-D;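 note: growth inhibition of the cell line, read out in a cell viability assay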
Description: SANGER: Inhibition of human LB373-MEL-D cell growth in a cell viability assay.

COc1ccc(-c2ccc3c(N4CCOC[C@@H]4C)nc(N4CCOC[C@@H]4C)nc3n2)cc1CO [AZD-8055]
pIC50 (Calu-6): < 5.70 | pIC50 (DoTc2-4510): < 5.70 | pIC50 (ES1): 6.26 | pIC50 (ES8): 6.44 | pIC50 (G-401): 6.51 | pIC50 (GCIY): 6.34 | pIC50 (HCC1187): < 5.70 | pIC50 (HCE-4): < 5.70 | pIC50 (HGC-27): 6.58 | pIC50 (HOS): 6.24 | pIC50 (HSC-2): 5.72 | pIC50 (IGROV-1): 6.17 | pIC50 (J-RT3-T3-5): 6.27 | pIC50 (KY821): 5.81 | pIC50 (LU-134-A): 5.99 | pIC50 (LU-99A): 6.11 | pIC50 (MG-63): 6.56 | pIC50 (MKN-7): 5.91 | pIC50 (ML-2): 6.23 | pIC50 (NB14): 6.78 | pIC50 (NCI-H1648): 6.15 | pIC50 (NCI-H1770): 6.10 | pIC50 (NCI-H2052): 5.73 | pIC50 (NCI-H2170): < 5.70 | pIC50 (NCI-H2405): 5.94 | pIC50 (NCI-H2452): 6.21 | pIC50 (NCI-H441): < 5.70 | pIC50 (NCI-H596): 5.90 | pIC50 (NCI-H810): < 5.70 | pIC50 (NKM-1): 6.70 | pIC50 (OAW-42): 6.23 | pIC50 (OCUB-M): 6.08 | pIC50 (PFSK-1): 6.08 | pIC50 (RS4-11): 6.12 | pIC50 (RT-112): 6.07 | pIC50 (SW948): < 5.70 | pIC50 (T98G): 5.99 | pIC50 (647-V): 5.81 | pIC50 (769-P): < 5.70 | pIC50 (A2058): 6.01 | pIC50 (A253 cell line): < 5.70 | pIC50 (A498): < 5.70 | pIC50 (A673): < 5.70 | pIC50 (A704): 6.09 | pIC50 (AU565): < 5.70 | pIC50 (ASPC1): 6.13 | pIC50 (CAL-12T): 6.11 | pIC50 (YAPC): < 5.70 | pIC50 (YKG-1): 5.79 | pIC50 (COLO-680N): 5.74

O=c1cc(-c2cccc3c2Sc2ccccc2S3)oc(N2CCOCC2)c1 [KU-55933]
pIC50 (Calu-6): < 5.00 | pIC50 (DoTc2-4510): < 5.00 | pIC50 (ES1): < 5.00 | pIC50 (ES8): < 5.00 | pIC50 (G-401): < 5.00 | pIC50 (GCIY): < 5.00 | pIC50 (HCC1187): < 5.00 | pIC50 (HCE-4): < 5.00 | pIC50 (HGC-27): < 5.00 | pIC50 (HOS): < 5.00 | pIC50 (HSC-2): < 5.00 | pIC50 (IGROV-1): < 5.00 | pIC50 (J-RT3-T3-5): < 5.00 | pIC50 (LB373-MEL-D): < 5.00 | pIC50 (LU-134-A): < 5.00 | pIC50 (LU-99A): < 5.00 | pIC50 (MG-63): < 5.00 | pIC50 (MKN-7): < 5.00 | pIC50 (NB14): < 5.00 | pIC50 (NCI-H1648): < 5.00 | pIC50 (NCI-H1770): < 5.00 | pIC50 (NCI-H2052): < 5.00 | pIC50 (NCI-H2170): < 5.00 | pIC50 (NCI-H2405): < 5.00 | pIC50 (NCI-H2452): < 5.00 | pIC50 (NCI-H441): < 5.00 | pIC50 (NCI-H596): < 5.00 | pIC50 (NCI-H810): < 5.00 | pIC50 (NKM-1): < 5.00 | pIC50 (OAW-42): < 5.00 | pIC50 (OCUB-M): < 5.00 | pIC50 (PFSK-1): < 5.00 | pIC50 (RS4-11): < 5.00 | pIC50 (RT-112): < 5.00 | pIC50 (SW948): < 5.00 | pIC50 (T98G): < 5.00 | pIC50 (647-V): < 5.00 | pIC50 (769-P): < 5.00 | pIC50 (A2058): < 5.00 | pIC50 (A253 cell line): < 5.00 | pIC50 (A498): < 5.00 | pIC50 (A673): < 5.00 | pIC50 (A704): < 5.00 | pIC50 (AU565): < 5.00 | pIC50 (ASPC1): < 5.00 | pIC50 (CAL-12T): < 5.00 | pIC50 (YAPC): < 5.00 | pIC50 (YKG-1): < 5.00 | pIC50 (COLO-680N): < 5.00

COc1ccc(C2=N[C@@H](c3ccc(Cl)cc3)[C@@H](c3ccc(Cl)cc3)N2C(=O)N2CCNC(=O)C2)c(OC(C)C)c1 [NUTLIN-3]
pIC50 (Calu-6): < 5.10 | pIC50 (DoTc2-4510): < 5.10 | pIC50 (ES1): < 5.10 | pIC50 (ES8): < 5.10 | pIC50 (G-401): 5.47 | pIC50 (GCIY): < 5.10 | pIC50 (HCC1187): < 5.10 | pIC50 (HCE-4): < 5.10 | pIC50 (HGC-27): < 5.10 | pIC50 (HOS): < 5.10 | pIC50 (HSC-2): < 5.10 | pIC50 (IGROV-1): < 5.10 | pIC50 (J-RT3-T3-5): < 5.10 | pIC50 (KY821): < 5.10 | pIC50 (LU-134-A): < 5.10 | pIC50 (LU-99A): < 5.10 | pIC50 (MG-63): < 5.10 | pIC50 (MKN-7): < 5.10 | pIC50 (ML-2): 5.59 | pIC50 (NB14): < 5.10 | pIC50 (NCI-H1648): < 5.10 | pIC50 (NCI-H1770): < 5.10 | pIC50 (NCI-H2052): < 5.10 | pIC50 (NCI-H2170): < 5.10 | pIC50 (NCI-H2405): < 5.10 | pIC50 (NCI-H2452): < 5.10 | pIC50 (NCI-H441): < 5.10 | pIC50 (NCI-H596): < 5.10 | pIC50 (NCI-H810): < 5.10 | pIC50 (NKM-1): 5.98 | pIC50 (OAW-42): < 5.10 | pIC50 (OCUB-M): < 5.10 | pIC50 (PFSK-1): < 5.10 | pIC50 (RS4-11): 5.56 | pIC50 (RT-112): < 5.10 | pIC50 (SW948): < 5.10 | pIC50 (T98G): < 5.10 | pIC50 (647-V): < 5.10 | pIC50 (769-P): < 5.10 | pIC50 (A2058): < 5.10 | pIC50 (A253 cell line): < 5.10 | pIC50 (A498): < 5.10 | pIC50 (A673): < 5.10 | pIC50 (A704): < 5.10 | pIC50 (AU565): < 5.10 | pIC50 (ASPC1): < 5.10 | pIC50 (CAL-12T): < 5.10 | pIC50 (YAPC): < 5.10 | pIC50 (YKG-1): < 5.10 | pIC50 (COLO-680N): < 5.10
